The values below come from PubChem BioAssay (NCI).

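Cultured in 96-well plates, cells were exposed to test compound for 48 hours across five concentrations. The concentration for 50% growth inhibition is given as GI50. TGI denotes the concentration required for complete inhibition of growth.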

Among the test systems are SF-268 CNS; HCC-2998 colon; SW-620 colon; U251 CNS; OVCAR-8 ovarian; HL-60(TB) leukemia; MCF7 breast; PC-3 prostate; NCI-H522 lung; NCI-H460 lung.
What all share (test): DTP human tumour cell line panel, 48 h

For `COC(=O)c1ccc2c(c1)nc(NC(=O)c1ccccc1)n2CCCc1ccccc1`, the GI50 in the experiment with SF-268 CNS is 3.93 µM; with HCC-2998 colon, 30.6 µM; with SW-620 colon it was 4.03 µM; in the experiment with U251 CNS it was 2.73 µM; in the experiment on OVCAR-8 ovarian, 4.79 µM; in the experiment on HL-60(TB) leukemia, 4.5 µM. The GI50 is 1.78 µM with MCF7 breast, 4.07 µM with PC-3 prostate, 3.58 µM in the experiment on NCI-H522 lung and 1.22 µM with NCI-H460 lung. Besides, the TGI in the experiment on SF-268 CNS, with HCC-2998 colon, with SW-620 colon, with U251 CNS, in the experiment on OVCAR-8 ovarian and with HL-60(TB) leukemia was over 100 µM in each case. Besides, the TGI in the experiment with MCF7 breast was over 100 µM; with PC-3 prostate it was over 100 µM; with NCI-H522 lung, 99.3 µM; in the experiment with NCI-H460 lung, over 100 µM.
Consider `CC/C=C\C[C@H](O)C/C=C1/C(=O)C(Cl)=C[C@@H]1C/C=C\CCCC(=O)OC`, for which the GI50 was 0.505 µM with SF-268 CNS; 0.701 µM in the experiment with HCC-2998 colon; 0.318 µM with SW-620 colon; 0.339 µM with U251 CNS; 0.347 µM with OVCAR-8 ovarian; 0.453 µM in the experiment with HL-60(TB) leukemia. The GI50 with MCF7 breast was 0.185 µM; in the experiment with PC-3 prostate, 0.54 µM; in the experiment on NCI-H522 lung, 0.271 µM; in the experiment with NCI-H460 lung, 0.558 µM. Further, the TGI with SF-268 CNS came out at 2.34 µM; in the experiment on HCC-2998 colon it was 2.22 µM; in the experiment on SW-620 colon, 1.29 µM; in the experiment with U251 CNS it was 1.39 µM; in the experiment with OVCAR-8 ovarian it was 0.864 µM; with HL-60(TB) leukemia, 1.91 µM. In addition, the concentration for total growth inhibition (TGI) turned out to be 2.44 µM in the experiment on MCF7 breast, 2.33 µM in the experiment with PC-3 prostate, 0.592 µM with NCI-H522 lung and 2.22 µM in the experiment with NCI-H460 lung.
With `COc1cc(OCc2cccc(-c3ccc(C(O)c4nccs4)cc3)c2C)cc(OC)c1C=O` (stereo not given), the GI50 with SF-268 CNS was 2.92 µM; with HCC-2998 colon, 2.28 µM; with SW-620 colon, 3.2 µM; with U251 CNS, 2.74 µM; in the experiment with OVCAR-8 ovarian, 2.9 µM; with HL-60(TB) leukemia it was 1.87 µM. Besides, the GI50 with MCF7 breast is 1.69 µM; in the experiment on PC-3 prostate, 2.74 µM; with NCI-H522 lung, 1.74 µM; in the experiment on NCI-H460 lung, 1.09 µM. Also, the TGI in the experiment on SF-268 CNS was found to be 12.3 µM; in the experiment on HCC-2998 colon, 7.08 µM; in the experiment with SW-620 colon, 12.7 µM; with U251 CNS it was 11.3 µM; with OVCAR-8 ovarian, 23.6 µM; in the experiment on HL-60(TB) leukemia it was 4.85 µM. In addition, the TGI turned out to be 4.81 µM in the experiment on MCF7 breast, 11.2 µM with PC-3 prostate, 6.35 µM in the experiment on NCI-H522 lung and 10.7 µM in the experiment on NCI-H460 lung.
As for `COC(=O)COc1ccccc1/C=C1\N=C(c2ccccc2)N(c2cc(C(F)(F)F)ccc2Cl)C1=O`, the GI50 with SF-268 CNS is 29.8 µM; in the experiment with HCC-2998 colon it was 36.3 µM; with SW-620 colon, 38.8 µM; in the experiment with U251 CNS, 55.9 µM; with OVCAR-8 ovarian, 37.3 µM; with HL-60(TB) leukemia it was 31.1 µM. Besides, the GI50 in the experiment with MCF7 breast is 39.1 µM; in the experiment on PC-3 prostate, 32.5 µM; with NCI-H522 lung, 38.2 µM; in the experiment on NCI-H460 lung, 59.6 µM. Further, the total growth inhibition concentration (TGI) in the experiment on SF-268 CNS, in the experiment on HCC-2998 colon, with SW-620 colon, in the experiment on U251 CNS, with OVCAR-8 ovarian and in the experiment with HL-60(TB) leukemia was over 100 µM in each case. Further, the TGI in the experiment with MCF7 breast, in the experiment with PC-3 prostate, in the experiment with NCI-H522 lung and in the experiment on NCI-H460 lung was over 100 µM in each case.
In the case of `CC(=O)CCn1c(=S)sc2ccccc21`, the TGI with SF-268 CNS, in the experiment with HCC-2998 colon, in the experiment with SW-620 colon, with U251 CNS, in the experiment on OVCAR-8 ovarian and with HL-60(TB) leukemia was over 100 µM in each case. The TGI with MCF7 breast, in the experiment on PC-3 prostate, in the experiment on NCI-H522 lung and with NCI-H460 lung was over 100 µM in each case.
As to `CCN(CC)CCC(CNc1ccnc2cc(Cl)ccc12)c1ccc(Cl)cc1` (stereo not given), the GI50 in the experiment with SF-268 CNS was 1.97 µM; in the experiment with HCC-2998 colon, 0.642 µM; in the experiment on SW-620 colon it was 1.48 µM; in the experiment on U251 CNS, 1.37 µM; in the experiment on OVCAR-8 ovarian, 1.86 µM; in the experiment on HL-60(TB) leukemia, 1.34 µM. The GI50 with MCF7 breast is 1.06 µM; in the experiment on PC-3 prostate, 3.28 µM; in the experiment with NCI-H522 lung it was 0.608 µM; in the experiment with NCI-H460 lung, 2.03 µM. Further, the TGI was determined as 4.61 µM with SF-268 CNS; 2.03 µM in the experiment on HCC-2998 colon; 3.39 µM in the experiment on SW-620 colon; 2.85 µM with U251 CNS; 4.79 µM in the experiment on OVCAR-8 ovarian; 3.94 µM with HL-60(TB) leukemia. Besides, the concentration for total growth inhibition (TGI) turned out to be 2.32 µM in the experiment on MCF7 breast, 17.7 µM in the experiment with PC-3 prostate, 2.19 µM in the experiment on NCI-H522 lung and 11.1 µM in the experiment on NCI-H460 lung.
Regarding `COc1cccc(CC(C)=C(c2ccc(OCCN(C)C)cc2)c2ccc(OCCN(C)C)cc2)c1`, the GI50 in the experiment on SF-268 CNS is 4.03 µM; with HCC-2998 colon, 0.895 µM; in the experiment on SW-620 colon, 0.735 µM; with U251 CNS, 0.903 µM; with OVCAR-8 ovarian it was 2.04 µM; in the experiment with HL-60(TB) leukemia, 0.667 µM. The GI50 in the experiment on MCF7 breast was 0.926 µM; in the experiment with PC-3 prostate, 1.95 µM; in the experiment with NCI-H522 lung, 2.86 µM; in the experiment on NCI-H460 lung, 2.83 µM. Also, the TGI with SF-268 CNS turned out to be 8.69 µM; in the experiment with HCC-2998 colon it was 4.92 µM; with SW-620 colon, 1.82 µM; in the experiment with U251 CNS it was 2.42 µM; in the experiment on OVCAR-8 ovarian it was 6.71 µM; with HL-60(TB) leukemia it was 1.34 µM. Besides, the TGI in the experiment with MCF7 breast amounted to 3.85 µM; with PC-3 prostate, 6.82 µM; in the experiment on NCI-H522 lung it was 7.95 µM; in the experiment on NCI-H460 lung, 7.38 µM.

For orientation: GI50 means the concentration giving 50% growth inhibition. In general, TGI refers to the concentration at which net growth stops. Lower therefore signals greater sensitivity of the cells.
